Experimental data taken from patent publication US6639515B2, “Surveillance system for adverse events during drug development studies” (Novo Nordisk A/S, priority 2001, dated 2003).

Legend:
[1] = Phase III trials, CUSUM surveillance of prolapses and urinary incontinence; format: in vivo, women
Source text: Phase III consisted of studies including 3000 women. The inclusion criteria were extended so that the women were older than those participating in phase II. Subjects were randomized to take either a placebo or NNC 46-0020 in one of two doses. […] As explained in detail below, this product has motivated the choice of parameters in the examples.
Early in phase III, a number of reports of prolapses and urinary incontinence were received. It was suspected that there were too many cases of prolapses and incontinence. Therefore, it was decided to set up a surveillance program, including expedited reporting of the events even though they are not classified as serious adverse events. Furthermore, investigators were instructed specifically to check for these types of events.
First, it was decided to set up separate programs for prolapses and incontinence, but later the etiology was suspected to be the same and therefore a combined program was used. The incidence of these events is poorly documented in the literature. There are a few reports on the prevalence and based on these, an incidence of 1%/year for each type of adverse event was chosen. This gives an estimated 60 events during the first year of the trial, distributed with 40 in the treatment group, and 20 in the placebo group. An alternative considered was to have a relative risk of 2, corresponding to an expected number of […]. The lower limit c was chosen as 0.
Due to the focus on these events, a number of adverse events were reported each day, and safety committee meetings were held each week. […] At this time, the process had passed not only the limit corresponding to the incidence of 1% of each type of adverse event, but also the limit corresponding to an incidence of 10%. Such “overrunning” seems to be unavoidable for multi-center studies. The distribution 44 to 1 corresponds to a relative risk of 22 for NNC 46-0020. […]

[2] = Phase II trials, adverse events; format: in vivo, women
Source text: The present invention was used to test a particular drug compound, NNC 46-0020, which was designed to protect healthy women from getting osteoporosis.

COc1ccc2c(c1)OC(C)(C)[C@@H](c1ccccc1)[C@@H]2c1ccc(OCCN2CCCC2)cc1 [NNC 46-0020]
final analysis of risk of prolapses and incontinence ([1]; after termination of the phase III trials, relative risk estimate reduced): increased risk of prolapses and incontinence | relative risk of prolapses and incontinence ([1]; phase III, drug (two doses pooled, 2/3 of patients) versus placebo (1/3), at the committee meeting where the alarm limit was passed): 22 | distribution of adverse events (prolapses and incontinence), treatment group to placebo group ([1]; phase III, unblinded cases at the committee meeting where the alarm limit was passed): 44 to 1 | adverse events in phase II trials [2]: without major problems regarding adverse events
